Experiments:
LDH-A = assay: Western blot of LDH-A phosphorylation in K562 cells after treatment; assay type: cell-based; settings: imatinib treatment, 24 hours
Excerpt: Imatinib was purchased from Cayman Chemical.

K562 cells [1] = assay: Lactate concentration (pool size) in cell culture media by conventional high-field NMR spectrometer; assay type: cell-based; settings: 1 μM imatinib
Protocol: Each lactate signal was acquired by a conventional high-field NMR spectrometer. All measurements were performed in triplicate. Error bars show the standard deviation.

K562 cells [2] = settings: 24 hours of drug treatment, concentrations as high as 1 μM
Protocol: K562 cells were plated with a concentration of 100,000 cells/mL in 10 mL complete RPMI media. […] Two sets of four flasks (two flasks per each sample) were prepared and stored in an incubator for 24 hours. Cell number and viability were checked after 24 hours, and cells were washed with complete RPMI media once and prepared for hyperpolarization experiments.
The cell number and the viability were measured using CELLOMETER Mini cell counter (Nexcelom Bioscience); the cell suspension was mixed at 1:1 ratio with the trypan blue solution before the measurement. For each measurement, the cell suspension was diluted to make its concentration within a range of 0.8-2×10^6/mL.

Compound: Cc1ccc(NC(=O)c2ccc(CN3CCN(C)CC3)cc2)cc1Nc1nccc(-c2cccnc2)n1 [imatinib, Imatinib]
- phosphorylation of LDH-A (LDH-A): decreased phosphorylation
- time required to make a significant change in the lactate pool size (K562 cells [1]): about 12 hours
- cell viability (K562 cells [2]): not significantly changed

Reference: patent US10921397B2, “Hyperpolarized micro-NMR system and methods” (Memorial Sloan Kettering Cancer Center, priority 2016, dated 2021)
